Patent US20240109897A1, “MODULATORS OF FPR1 AND METHODS OF USING THE SAME” (BEIJING TIANTAN HOSPITAL, priority 2021, published 2024)

Molecular target: T1, FPR1 (UniProt P21462)
T1 sequence (P21462 1-350): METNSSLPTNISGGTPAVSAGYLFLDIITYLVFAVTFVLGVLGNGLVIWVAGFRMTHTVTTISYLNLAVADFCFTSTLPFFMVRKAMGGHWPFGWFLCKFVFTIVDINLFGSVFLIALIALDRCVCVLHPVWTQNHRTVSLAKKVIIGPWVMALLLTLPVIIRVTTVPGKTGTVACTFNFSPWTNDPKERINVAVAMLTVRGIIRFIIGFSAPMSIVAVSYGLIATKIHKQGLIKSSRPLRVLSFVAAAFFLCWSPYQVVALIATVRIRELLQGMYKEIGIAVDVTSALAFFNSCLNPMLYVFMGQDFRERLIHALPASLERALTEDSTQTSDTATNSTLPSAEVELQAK
Test: fMLP-FPR1 mediated calcium signaling assay in FPR1-overexpressing 293T cells
Format: cell-based, human or mouse
Details: inhibition of fMLP-FPR1 mediated intracellular calcium change; hFPR1 or mFPR1 overexpressing 293T cells; 10 min preincubation; INDO-1 AM, FACS
Experimental: The effects of the compounds of this disclosure on regulating the FPR1-mediated cell signaling were measured by monitoring the cellular calcium level change, as illustrated by the exemplary examples in Table 2. The dose response of the illustrated examples are reported categorically using the following ranking criteria: *** (IC50≤100 nM); ** (IC50≥100 to ≤1000 nM); * (IC50≥1000 to ≤10,000 nM); N.D.—not detected.
The coding DNA sequence (CDS) of human FPR1 (NM_001193306) and mouse FPR1 (NM_013521) were cloned and inserted to the lentivirus vector GV367 (Vector information:http://www.genechem.com.cn/index/supports/tool_search.html?keywords=GV367) under the conduction of pCMV promoter. 293T cells were cultured in H-DMEM supplemented with 10% FBS and 1% penicillin-streptomycin (PS) at 37° C. in 5% CO2 Incubator. 293T cells were transfected with lentivirus vector GV367 containing the CDS of human or mouse FPR1 for 24 h and then cultured with complete medium for another 48 h. At 72 h after transfected, cells were passaged, and 5 μg/ml puromycin was added to screen FPR1-transfected 293T cells. The overexpression of human or mouse FPR1 in 293 T cells were detected by immunostaining with anti-mouse or human FPR1 antibodies (Biolegend or Antibody Online).
Cultured hFPR1 or mFPR1 overexpressing 293T cells were labeled with 1 μM INDO-1 AM calcium sensor dye (eBioscience) for 30 min at 37° C. After washed with 1×PBS, cells were resuspended with H-DMEM containing 3% FBS, and were maintained on ice prior to the measurement of intracellular calcium concentration. To measure the inhibitory potency of designed potential FPR1 antagonists, hFPR1 or mFPR1 overexpressing 293T cells were incubated with the compound for 10 min at room temperature. The cytoplasmic calcium levels were then measured by FACS Aria III at 37° C. prior to and after the stimulation of fMLP. We defined the immunofluorescence intensity of indo-1 AM before adding fMLP as the basal value, and the intensity at the peak immunofluorescence reduction after adding fMLP as minimum value for each sample. The change of intracellular calcium was calculated as follow: (basal value−minimum value)/basal value×100%. The IC50 of each compound in inhibiting fMLP-FPR1 mediated intracellular calcium concentration in 293T cells were automatically calculated with Prism 8.0.2 software (GraphPad) after inputting a series of change of intracellular calcium at multiple concentration gradients (from 0 nM to 100 μM).

Cc1ccc(O)c(-c2[nH]nc3c2C(c2ccc(C(F)(F)F)cc2)N(C2CCOCC2)C3=O)c1 (racemic) [Compound 1, Rac-3-(2-hydroxy-5-methylphenyl)-5-(tetrahydro-2H-pyran-4-yl)-4-(4-(trifluoromethyl)phenyl)-4,5-dihydropyrrolo[3,4-c]pyrazol-6(2H)-one]
IC50: 100 to 1000 nM
